# From patent US5658942A, “Octahydronaphthalene oxime compounds for cholesterol synthesis inhibition” (Sankyo Company, Limited, priority 1987, dated 1997)
# Test system: 3-hydroxy-3-methylglutaryl-coenzyme A reductase
# Assay: not given
# Conditions: enzymes or cultured cells from experimental animals; competing with HMG-CoA reductase; cited from earlier work
row,SMILES,inhibition of the biosynthesis of cholesterol
1,CC1C=CC2=CCCC(O)C2C1CCC1CC(O)CC(=O)O1 (stereo not shown) [ML-236A],inhibit the biosynthesis of cholesterol
2,CCC(C)C(=O)OC1CCC=C2C=CC(C)C(CCC3CC(O)CC(=O)O3)C21 (stereo not shown) [ML-236B],inhibit the biosynthesis of cholesterol

# Molecular target: T1, 3-hydroxy-3-methyl-glutaryl CoA reductase (Rattus norvegicus, UniProt P51639)
# T1 construct: from tissue; host or cells: enzyme system separated from an experimental animal
# T1 sequence (P51639 1-887): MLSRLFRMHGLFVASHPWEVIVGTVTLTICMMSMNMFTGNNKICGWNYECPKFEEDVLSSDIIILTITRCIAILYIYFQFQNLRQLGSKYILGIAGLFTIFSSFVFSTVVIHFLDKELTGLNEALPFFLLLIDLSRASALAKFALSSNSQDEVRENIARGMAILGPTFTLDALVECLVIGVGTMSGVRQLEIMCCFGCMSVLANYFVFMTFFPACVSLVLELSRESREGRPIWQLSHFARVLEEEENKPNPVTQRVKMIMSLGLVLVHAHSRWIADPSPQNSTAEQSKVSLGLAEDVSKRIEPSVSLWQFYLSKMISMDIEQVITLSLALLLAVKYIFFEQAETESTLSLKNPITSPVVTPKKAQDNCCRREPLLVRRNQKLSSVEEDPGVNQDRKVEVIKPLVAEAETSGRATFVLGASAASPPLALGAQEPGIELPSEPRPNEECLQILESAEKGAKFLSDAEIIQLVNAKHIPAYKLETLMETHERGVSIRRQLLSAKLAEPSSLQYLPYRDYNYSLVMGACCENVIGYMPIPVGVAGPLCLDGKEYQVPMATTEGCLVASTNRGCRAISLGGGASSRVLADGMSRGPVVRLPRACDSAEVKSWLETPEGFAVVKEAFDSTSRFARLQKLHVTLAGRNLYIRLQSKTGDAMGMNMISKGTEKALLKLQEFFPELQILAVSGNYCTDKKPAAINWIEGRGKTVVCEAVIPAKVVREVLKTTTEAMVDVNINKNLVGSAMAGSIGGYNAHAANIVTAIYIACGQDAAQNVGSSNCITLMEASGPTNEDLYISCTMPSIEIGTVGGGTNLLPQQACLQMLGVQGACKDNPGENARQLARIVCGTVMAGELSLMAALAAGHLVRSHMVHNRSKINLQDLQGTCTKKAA
# Assay: inhibition of 3-hydroxy-3-methyl-glutaryl CoA reductase (method of Kuroda et al.)
# Type: biochemical
# Conditions: read-out: IC50 (concentration to achieve 50% inhibition of 3-hydroxy-3-methyl-glutaryl CoA reductase)
# From the text: The compounds of the present invention have a marked ability to reduce the levels of serum cholesterol. Specifically, the biosynthesis of chlolesterol in an enzyme system or a culture cell system separated from an experimental animal is inhibited through competition with the rate limiting enzyme of 3-hydroxy-3-methylglutaryl-CoA reductase. […] The determination of the inhibitory activity of the compounds was made using the method of Kuroda et al ["Biochimica et Biophysica Acta" Vol. 486, pp. 70-81(1977)] which is a modification of the known method of D. J. Shapiro et al ["Analytical Biochemistry" Vol. 31, pp. 383-390(1969)] with some improvements.
# The results are shown in Table 2, in which IC50 is the concentration to achieve 50% inhibition of 3-hydroxy-3-methyl-glutaryl CoA reductase (nM).
row,SMILES,IC50
1,"CCC(C)C(=O)OC1CCC(=NOCC=C(C)C)C2=CC(=O)C(C)C(CCC(O)CC(O)CC(=O)O)C21 (stereo not shown) [Example 17b, Sodium 1-(2-methylbutyryl)-3,4-dihydro-6-oxo-4-(3-methyl-2-butenyl)oxyiminoiso-ML-236A Carboxylate]",21.3 nM
2,"CCC(C)C(=O)OC1CCC(=NOC)C2=CC(=O)C(C)C(CCC(O)CC(O)CC(=O)O)C21 (stereo not shown) [Compound B, Sodium 1-(2-methylbutyryl)-3,4-dihydro-6-oxo-4-methoxyiminoiso-ML-236A carboxylate, reference compound]",39.5 nM
3,"CCC(C)C(=O)OC1CCC(=NO)C2=CC(=O)C(C)C(CCC(O)CC(O)CC(=O)O)C21 (stereo not shown) [Compound A, Sodium 1-(2-methylbutyryl)-3,4-dihydro-6-oxo-4-hydroxyiminoiso-ML-236A carboxylate, reference compound]",35.7 nM
4,"CCC(C)C(=O)OC1CCC(=NOCc2ccccc2CO)C2=CC(=O)C(C)C(CCC(O)CC(O)CC(=O)O)C21 (stereo not shown) [Example 6b, Sodium 1-(2-methylbutyryl)-3,4-dihydro-6-oxo-4-(2-hydroxymethylbenzyl)oxyiminoiso-ML-236A Carboxylate]",18.4 nM
5,"CCC(C)C(=O)OC1CCC(=NOCc2ccccc2)C2=CC(=O)C(C)C(CCC(O)CC(O)CC(=O)OCc3ccccc3)C21 (stereo not shown) [Example 1(c), Benzyl-(2-methylbutyryl)-3,4-dihydro-6-oxo-4-benzyl-oxyiminoiso-ML-236A carboxylate]",33.1 nM

# Now from value to compound:
row,IC50,SMILES
1,21 nM,"CCC(C)C(=O)OC1CCC(=NOCc2ccc([N+](=O)[O-])cc2)C2=CC(=O)C(C)C(CCC(O)CC(O)CC(=O)O)C21 (stereo not shown) [Example 4b, Sodium 1-(2-methylbutyryl)-3,4-dihydro-6-oxo-4-(4-nitrobenzyl)oxyiminoiso-ML-236ACarboxylate]"
2,31.4 nM,"CCC(C)C(=O)OC1CCC(=NOCc2cccnc2)C2=CC(=O)C(C)C(CCC(O)CC(O)CC(=O)O)C21 (stereo not shown) [Example 10b, Sodium 1-(2-methylbutyryl)-3,4-dihydro-6-oxo-4-(3-pyridylmethyl)oxyiminoiso-ML-236A Carboxylate]"
3,36 nM,"CCC(C)C(=O)OC1CCC(=NOCc2ccco2)C2=CC(=O)C(C)C(CCC(O)CC(O)CC(=O)O)C21 (stereo not shown) [Example 11b, Sodium 1-(2-methylbutyryl)-3,4-dihydro-6-oxo-4-furfuryl-oxyiminoiso-ML-236ACarboxylate]"
4,26.5 nM,"CCC(C)C(=O)OC1CCC(=NOCc2ccc(F)cc2)C2=CC(=O)C(C)C(CCC(O)CC(O)CC(=O)O)C21 (stereo not shown) [Example 3b, Sodium 1-(2-methylbutyryl)-3,4-dihydro-6-oxo-4-(4-fluorobenzyl)oxyiminoiso-ML-236A Carboxylate]"

# Test system: serum cholesterol
# Assay: not given
# Conditions: animals; J. Antibiotics 29, 1346 (1976); cited from earlier work
row,SMILES,reduction of serum cholesterol levels
1,CC1C=CC2=CCCC(O)C2C1CCC1CC(O)CC(=O)O1 (stereo not shown) [ML-236A],significantly reduce
2,CCC(C)C(=O)OC1CCC=C2C=CC(C)C(CCC3CC(O)CC(=O)O3)C21 (stereo not shown) [ML-236B],significantly reduce
